TGI and GI50 data for four compounds are collected here from PubChem BioAssay (NCI).

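Five compound concentrations were applied to cells in 96-well plates for 48 hours; endpoints were derived by simple linear interpolation of the resulting dose-response curve. GI50 = concentration required for 50% inhibition of growth. TGI is the concentration that stops growth completely.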 Some results are limits rather than exact numbers.

Holding throughout (experiment): NCI tumour cell line growth inhibition, 48 h
Test [1] deals with SF-295 CNS.
Test [2] concerns DLD-1 colon.
Test [3] deals with DMS 114 small cell lung.
Test [4] deals with DMS 273 small cell lung.
Test [5] relates to HOP-18 NSCLC.
For test [6], the system named is KM20L2 colon.
The subject of test [7] is M19-MEL melanoma.
In test [8] the test system is P388 leukemia.
The test system of test [9] is P388/ADR leukemia.
Test [10] deals with SN12K1 renal.
Test [11] concerns SNB-78 CNS.
Test [12] has as its system XF 498 CNS.
In test [13] the test system is DU-145 prostate.
In test [14] the test system is HS 578T breast.
In test [15] the test system is MDA-MB-231 breast.
Test [16] deals with MDA-N.
Test [17] concerns T-47D breast.

In turn, `O=c1c2cc(I)ccc2nc(-c2cccs2)n1Nc1ccccc1` registered a TGI in test [1] of 32.9 µM.
`Nc1ccc(N=Nc2ccc(/C=C/c3ccc(N=Nc4ccc(N)c5ccc(S(=O)(=O)O)cc45)cc3S(=O)(=O)O)c(S(=O)(=O)O)c2)c2cc(S(=O)(=O)O)ccc12`: the TGI in test [2], in test [3], in [4], in [5], in [6] and in [7] was above 100 µM each time. The TGI in test [8], in [9], in test [1], in test [10], in [11] and in test [12] was above 100 µM in each case.
`CC1CN=C(NCc2ccccc2)S1` (centres undefined): the TGI in test [13], in test [14], in test [15], in test [16] and in test [17] was above 100 µM throughout.
On to `COc1cc(/C=C2\CCCC3=C2NC(N)=NC3c2cc(OC)c(OC)c(OC)c2)cc(OC)c1OC` (centres undefined), for which the GI50 in [13] is 3.36 µM; in [14] it was 0.554 µM; in test [15], 3.87 µM. Moreover, the TGI in test [13] was above 100 µM; in test [14], 7.62 µM; in [15], above 100 µM.
